Assays:
[1] = xn = mol fraction of the nth substance listed; details: 101 kPa, Liquid
[2] = 101 kPa, Liquid

CC#N [acetonitrile] + CCCCn1cc[n+](C)c1.F[P-](F)(F)(F)(F)F
[1], x2 = 0
Details | mass density [kg/m3]
293.15 K | 782.3
298.15 K | 776.93
303.15 K | 771.44
308.15 K | 765.97
313.15 K | 760.68
323.15 K | 749.73
333.15 K | 738.19
343.15 K | 726.94

CC#N [acetonitrile] + CCCCn1cc[n+](C)c1.F[B-](F)(F)F
[1], x2 = 0
Details | mass density [kg/m3]
293.15 K | 782.3
298.15 K | 776.93
303.15 K | 771.44
308.15 K | 765.97
313.15 K | 760.68
323.15 K | 749.73
333.15 K | 738.19
343.15 K | 726.94

c1ccccc1 [benzene]
[2]
Details | mass density [kg/m3]
293.15 K | 878.23
298.15 K | 873.11
303.15 K | 867.59
308.15 K | 862.21
313.15 K | 856.82
323.15 K | 846.05
333.15 K | 835.76
343.15 K | 824.89

c1ccccc1 [benzene] + CCCCn1cc[n+](C)c1.F[B-](F)(F)F
[1], x2 = 0
Details | mass density [kg/m3]
293.15 K | 878.23
298.15 K | 873.11
303.15 K | 867.59
308.15 K | 862.21
313.15 K | 856.82
323.15 K | 846.05
333.15 K | 835.76
343.15 K | 824.89

CCCCn1cc[n+](C)c1.F[P-](F)(F)(F)(F)F [1-butyl-3-methylimidazolium hexafluorophosphate] + CC#N
mass density [kg/m3], [1]
Details | x1 = 0.1 | x1 = 0.1997 | x1 = 0.3001 | x1 = 0.4002 | x1 = 0.4995 | x1 = 0.5996 | x1 = 0.7001 | x1 = 0.8 | x1 = 0.8992 | x1 = 1
293.15 K | 974.06 | 1089.47 | 1167.16 | 1221.32 | 1261.57 | 1293.48 | 1318.51 | 1339.25 | 1356.81 | 1371.57
298.15 K | 969.05 | 1084.37 | 1162.48 | 1216.77 | 1257.1 | 1289.08 | 1314.15 | 1334.92 | 1352.54 | 1367.22
303.15 K | 963.9 | 1079.44 | 1157.73 | 1212.1 | 1252.55 | 1284.55 | 1309.69 | 1330.47 | 1348.19 | 1362.86
308.15 K | 958.79 | 1074.57 | 1153.01 | 1207.52 | 1248.07 | 1280.12 | 1305.51 | 1326.23 | 1343.83 | 1358.56
313.15 K | 953.96 | 1070.04 | 1148.67 | 1203.29 | 1243.97 | 1276.12 | 1301.33 | 1322.21 | 1339.74 | 1354.3
323.15 K | 943.95 | 1060.53 | 1139.57 | 1194.5 | 1235.37 | 1267.65 | 1292.68 | 1313.73 | 1331.33 | 1345.98
333.15 K | 933.35 | 1050.42 | 1129.8 | 1184.99 | 1226.09 | 1258.64 | 1283.91 | 1305.14 | 1323.02 | 1337.7
343.15 K | 923.24 | 1040.99 | 1120.72 | 1176.43 | 1217.82 | 1250.62 | 1276.41 | 1297.84 | 1315.94 | 1330.76

c1ccccc1 [benzene] + CCCCn1cc[n+](C)c1.F[P-](F)(F)(F)(F)F
[1], x2 = 0
Details | mass density [kg/m3]
293.15 K | 878.23
298.15 K | 873.11
303.15 K | 867.59
308.15 K | 862.21
313.15 K | 856.82
323.15 K | 846.05
333.15 K | 835.76
343.15 K | 824.89

CCCO [propan-1-ol] + CCCCn1cc[n+](C)c1.F[B-](F)(F)F
[1], x2 = 0
Details | mass density [kg/m3]
293.15 K | 804.97
298.15 K | 801.01
303.15 K | 796.89
308.15 K | 792.83
313.15 K | 789.07
323.15 K | 780.74
333.15 K | 771.75
343.15 K | 762.86

CCCCn1cc[n+](C)c1.F[B-](F)(F)F [1-butyl-3-methylimidazolium tetrafluoroborate] + CC#N
mass density [kg/m3], [1]
Details | x1 = 0.1 | x1 = 0.1997 | x1 = 0.3 | x1 = 0.4005 | x1 = 0.4995 | x1 = 0.6015 | x1 = 0.6998 | x1 = 0.799 | x1 = 0.9012 | x1 = 1
293.15 K | 913.54 | 993.5 | 1047.76 | 1086.95 | 1116.42 | 1138.87 | 1156.73 | 1171.64 | 1185.23 | 1195.71
298.15 K | 908.78 | 989.03 | 1043.55 | 1082.89 | 1112.51 | 1135.03 | 1152.98 | 1167.96 | 1181.58 | 1192.07
303.15 K | 903.94 | 984.51 | 1039.25 | 1078.74 | 1108.44 | 1131.08 | 1149.11 | 1164.16 | 1177.8 | 1188.37
308.15 K | 899.1 | 980.03 | 1034.99 | 1074.62 | 1104.46 | 1127.17 | 1145.29 | 1160.39 | 1174.09 | 1184.72
313.15 K | 894.51 | 975.82 | 1031.1 | 1070.84 | 1100.65 | 1123.64 | 1141.82 | 1157 | 1170.73 | 1181.43
323.15 K | 885.05 | 967.07 | 1022.86 | 1062.98 | 1093.19 | 1116.23 | 1134.55 | 1149.88 | 1163.8 | 1174.49
333.15 K | 874.91 | 957.71 | 1013.98 | 1054.45 | 1084.93 | 1108.14 | 1126.63 | 1142.09 | 1156.07 | 1166.89
343.15 K | 866.42 | 948.85 | 1005.39 | 1046.32 | 1077.27 | 1100.67 | 1119.31 | 1134.92 | 1149.06 | 1159.97

— the NIST ThermoML archive (doi:10.1021/je700266n)
